Assay results from patent US20210070748A1, “INHIBITORS OF BRUTONS TYROSINE KINASE” (Pharmacyclics LLC, priority 2015, published 2021).
pIC50: −log10 of the molar value.

What was measured:
Type in all cases: biochemical
ITK = target: T1, ITK (Homo sapiens, UniProt Q08881); assay: Inhibition of a panel of kinases, in vitro HotSpot kinase assay: ITK; settings: D-compounds panel data; 1 μM ATP
T1 sequence (Q08881 1-620): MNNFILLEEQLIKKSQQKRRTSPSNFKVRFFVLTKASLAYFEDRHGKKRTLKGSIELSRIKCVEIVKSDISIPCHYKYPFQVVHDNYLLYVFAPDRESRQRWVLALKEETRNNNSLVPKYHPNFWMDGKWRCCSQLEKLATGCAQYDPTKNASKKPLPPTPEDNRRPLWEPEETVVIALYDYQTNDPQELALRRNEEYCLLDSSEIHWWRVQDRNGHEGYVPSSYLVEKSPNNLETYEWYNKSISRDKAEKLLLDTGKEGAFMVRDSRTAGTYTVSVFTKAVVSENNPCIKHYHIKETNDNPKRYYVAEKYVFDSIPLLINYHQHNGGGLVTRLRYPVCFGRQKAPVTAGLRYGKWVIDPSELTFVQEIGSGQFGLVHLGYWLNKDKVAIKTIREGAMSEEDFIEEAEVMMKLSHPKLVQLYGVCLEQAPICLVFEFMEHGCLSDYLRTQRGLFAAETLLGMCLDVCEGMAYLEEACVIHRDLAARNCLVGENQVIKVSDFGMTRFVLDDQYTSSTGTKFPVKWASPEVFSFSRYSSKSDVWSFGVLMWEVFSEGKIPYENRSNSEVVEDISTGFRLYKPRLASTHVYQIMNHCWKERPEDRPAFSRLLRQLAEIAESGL
Procedure: (§1) The degree of inhibition of a panel of kinases is determined using the in vitro HotSpot kinase assay (purified enzymes, ^33P-ATP, an appropriate substrate and 1 μM ATP).

JAK3 = target: T2, JAK3 (Homo sapiens, UniProt P52333); assay: Inhibition of a panel of kinases, in vitro HotSpot kinase assay: JAK3; settings: D-compounds panel data; 1 μM ATP; read-out: IC50 JAK3
T2 sequence (P52333 1-1124): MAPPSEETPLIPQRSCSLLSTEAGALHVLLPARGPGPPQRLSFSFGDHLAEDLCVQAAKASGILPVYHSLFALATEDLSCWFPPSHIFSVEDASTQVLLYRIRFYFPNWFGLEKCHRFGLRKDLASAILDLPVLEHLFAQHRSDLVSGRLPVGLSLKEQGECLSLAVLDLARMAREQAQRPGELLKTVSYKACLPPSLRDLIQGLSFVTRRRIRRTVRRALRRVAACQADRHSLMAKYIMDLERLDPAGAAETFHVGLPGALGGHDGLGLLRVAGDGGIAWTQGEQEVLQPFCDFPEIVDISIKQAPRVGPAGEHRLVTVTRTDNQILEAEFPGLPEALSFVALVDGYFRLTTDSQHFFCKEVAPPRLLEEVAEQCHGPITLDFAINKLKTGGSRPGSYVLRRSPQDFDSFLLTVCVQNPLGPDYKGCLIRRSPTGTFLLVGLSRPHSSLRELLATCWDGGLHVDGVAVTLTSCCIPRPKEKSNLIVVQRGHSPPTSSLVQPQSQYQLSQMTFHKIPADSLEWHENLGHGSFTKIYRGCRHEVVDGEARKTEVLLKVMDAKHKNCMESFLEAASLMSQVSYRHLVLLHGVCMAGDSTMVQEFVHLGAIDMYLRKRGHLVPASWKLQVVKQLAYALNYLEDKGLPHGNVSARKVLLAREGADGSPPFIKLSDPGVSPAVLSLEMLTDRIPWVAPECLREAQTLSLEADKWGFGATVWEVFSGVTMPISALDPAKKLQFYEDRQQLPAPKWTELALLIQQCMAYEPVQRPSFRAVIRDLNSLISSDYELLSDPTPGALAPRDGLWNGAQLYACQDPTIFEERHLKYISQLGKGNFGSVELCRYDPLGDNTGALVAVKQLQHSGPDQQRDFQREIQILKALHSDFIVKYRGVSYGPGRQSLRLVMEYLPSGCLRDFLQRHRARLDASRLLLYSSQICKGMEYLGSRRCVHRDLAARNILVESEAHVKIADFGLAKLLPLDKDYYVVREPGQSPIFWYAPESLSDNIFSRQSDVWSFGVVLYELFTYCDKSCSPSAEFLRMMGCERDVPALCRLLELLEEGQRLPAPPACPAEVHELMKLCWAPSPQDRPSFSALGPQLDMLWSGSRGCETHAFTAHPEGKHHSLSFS

EGFR = EGFR (Homo sapiens, UniProt P00533); assay: Inhibition of a panel of kinases, in vitro HotSpot kinase assay: EGFR; settings: D-compounds panel data; 1 μM ATP
Procedure: as §1

Chain of EGFR (P00533 25-1210): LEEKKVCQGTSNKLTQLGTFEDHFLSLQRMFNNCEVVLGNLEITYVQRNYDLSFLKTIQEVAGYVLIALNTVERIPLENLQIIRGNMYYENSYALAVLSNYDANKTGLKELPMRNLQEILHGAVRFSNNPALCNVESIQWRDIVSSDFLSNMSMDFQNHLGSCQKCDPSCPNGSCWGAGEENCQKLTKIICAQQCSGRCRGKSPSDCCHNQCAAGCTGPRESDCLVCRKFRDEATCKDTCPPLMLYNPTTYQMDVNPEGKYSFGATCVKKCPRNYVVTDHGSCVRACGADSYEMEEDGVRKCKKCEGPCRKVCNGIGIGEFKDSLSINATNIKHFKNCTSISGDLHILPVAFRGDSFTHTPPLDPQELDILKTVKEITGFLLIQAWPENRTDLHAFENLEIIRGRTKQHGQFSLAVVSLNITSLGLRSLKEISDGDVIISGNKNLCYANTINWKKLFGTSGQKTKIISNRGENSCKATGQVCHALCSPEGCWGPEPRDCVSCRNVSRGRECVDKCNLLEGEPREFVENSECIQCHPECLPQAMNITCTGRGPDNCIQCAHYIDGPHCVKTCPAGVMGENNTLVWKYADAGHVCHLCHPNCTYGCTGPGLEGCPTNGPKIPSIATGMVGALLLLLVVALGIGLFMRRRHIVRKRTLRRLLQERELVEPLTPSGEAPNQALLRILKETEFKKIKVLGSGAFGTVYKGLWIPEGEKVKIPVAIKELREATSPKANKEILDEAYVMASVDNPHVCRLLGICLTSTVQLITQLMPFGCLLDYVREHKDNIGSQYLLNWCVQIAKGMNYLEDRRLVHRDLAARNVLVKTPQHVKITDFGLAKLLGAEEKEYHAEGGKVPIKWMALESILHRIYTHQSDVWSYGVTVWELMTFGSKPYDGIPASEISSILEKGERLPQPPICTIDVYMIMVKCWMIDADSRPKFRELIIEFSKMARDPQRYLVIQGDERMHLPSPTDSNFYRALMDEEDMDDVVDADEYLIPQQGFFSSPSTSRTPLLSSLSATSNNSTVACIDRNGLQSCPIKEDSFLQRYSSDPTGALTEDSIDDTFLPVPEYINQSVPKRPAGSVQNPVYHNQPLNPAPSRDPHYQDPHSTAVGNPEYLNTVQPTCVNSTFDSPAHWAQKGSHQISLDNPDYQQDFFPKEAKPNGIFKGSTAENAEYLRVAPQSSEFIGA

pIC50 (ITK)	pIC50 (JAK3)	pIC50 (EGFR)	SMILES
6.00 to 7.00	6.00 to 7.00	6.00 to 7.00	C[C@@H]1[C@H](NC(=O)c2cc(C3CC3)n(C)n2)CCCN1c1cnc(C(N)=O)c(Nc2cnn(C)c2)n1 [Example D-253, 5-[(2R,3R)-3-(5-cyclopropyl-1-methyl-1H-pyrazole-3-amido)-2-methylpiperidin-1-yl]-3-[(1-methyl-1H-pyrazol-4-yl)amino]pyrazine-2-carboxamide]
6.00 to 7.00	5.00 to 6.00	5.00 to 6.00	C[C@@H]1[C@H](NC(=O)c2ccc3c(cnn3C)c2)CCCN1c1cnc(C(N)=O)c(Nc2cnn(C)c2)n1 [Example D-254, N-[(2R,3R)-1-{5-carbamoyl-6-[(1-methyl-1H-pyrazol-4-yl)amino]pyrazin-2-yl}-2-methylpiperidin-3-yl]-1-methyl-1H-indazole-5-carboxamide]
6.00 to 7.00	6.00 to 7.00	5.00 to 6.00	CC(C)n1nnc2cc(C(=O)N[C@@H]3CCCN(c4cnc(C(N)=O)c(Nc5cnn(C)c5)n4)[C@@H]3C)ccc21 [Example D-255, N-[(2R,3R)-1-{5-carbamoyl-6-[(1-methyl-i H-pyrazol-4-yl)amino]pyrazin-2-yl}-2-methylpiperidin-3-yl]-1-(propan-2-yl)-1H-1,2,3-benzotriazole-5-carboxamide]
6.00 to 7.00	6.00 to 7.00	6.00 to 7.00	C[C@@H]1[C@H](NC(=O)c2coc(C3CC3)n2)CCCN1c1cnc(C(N)=O)c(Nc2cnn(C)c2)n1 [Example D-257, 5-[(2R,3R)-3-(2-cyclopropyl-1,3-oxazole-4-amido)-2-methylpiperidin-1-yl]-3-[(1-methyl-1H-pyrazol-4-yl)amino]pyrazine-2-carboxamide]
6.00 to 7.00	5.00 to 6.00	5.00 to 6.00	C[C@@H]1[C@H](NC(=O)c2ccc3c(c2)CCC(C)(C)O3)CCCN1c1cnc(C(N)=O)c(Nc2cnn(C)c2)n1 [Example D-258, 5-[(2R,3R)-3-(2,2-dimethyl-3,4-dihydro-2H-1-benzopyran-6-amido)-2-methylpiperidin-1-yl]-3-[(1-methyl-1H-pyrazol-4-yl)amino]pyrazine-2-carboxamide]
6.00 to 7.00	5.00 to 6.00	5.00 to 6.00	C[C@@H]1[C@H](NC(=O)c2ccc3cnn(C)c3c2)CCCN1c1cnc(C(N)=O)c(Nc2cnn(C)c2)n1 [Example D-259, N-[(2R,3R)-1-{5-carbamoyl-6-[(1-methyl-1H-pyrazol-4-yl)amino]pyrazin-2-yl}-2-methylpiperidin-3-yl]-1-methyl-1H-indazole-6-carboxamide]
6.00 to 7.00	5.00 to 6.00	5.00 to 6.00	C[C@@H]1[C@H](NC(=O)c2ccc(C3(CO)CC3)cc2)CCCN1c1cnc(C(N)=O)c(Nc2cnn(C)c2)n1 [Example D-260, 5-[(2R,3R)-3-{4-[1-(hydroxymethyl)cyclopropyl]benzamido}-2-methylpiperidin-1-yl]-3-[(1-methyl-1H-pyrazol-4-yl)amino]pyrazine-2-carboxamide]
6.00 to 7.00	5.00 to 6.00	6.00 to 7.00	Cc1nc2cc(C(=O)N[C@@H]3CCCN(c4cnc(C(N)=O)c(Nc5cnn(C)c5)n4)[C@@H]3C)ccc2[nH]1 [Example D-261, N-[(2R,3R)-1-{5-carbamoyl-6-[(1-methyl-1H-pyrazol-4-yl)amino]pyrazin-2-yl}-2-methylpiperidin-3-yl]-2-methyl-1H-1,3-benzodiazole-5-carboxamide]
6.00 to 7.00	5.00 to 6.00	5.00 to 6.00	C[C@@H]1[C@H](NC(=O)c2ccc3[nH]cnc3c2)CCCN1c1cnc(C(N)=O)c(Nc2cnn(C)c2)n1 [Example D-262, N-[(2R,3R)-1-{5-carbamoyl-6-[(1-methyl-1H-pyrazol-4-yl)amino]pyrazin-2-yl}-2-methylpiperidin-3-yl]-1H-1,3-benzodiazole-5-carboxamide]
6.00 to 7.00	5.00 to 6.00	6.00 to 7.00	C[C@@H]1[C@H](NC(=O)c2cc3n(n2)CCC3)CCCN1c1cnc(C(N)=O)c(Nc2cnn(C)c2)n1 [Example D-263, 3-[(1-methyl-1H-pyrazol-4-yl)amino]-5-[(2R,3R)-2-methyl-3-{4H,5H,6H-pyrrolo[1,2-b]pyrazole-2-amido}piperidin-1-yl]pyrazine-2-carboxamide]
6.00 to 7.00	5.00 to 6.00	6.00 to 7.00	C[C@@H]1[C@H](NC(=O)c2c[nH]c(C3CC3)n2)CCCN1c1cnc(C(N)=O)c(Nc2cnn(C)c2)n1 [Example D-264, 5-[(2R,3R)-3-(2-cyclopropyl-1H-imidazole-4-amido)-2-methylpiperidin-1-yl]-3-[(1-methyl-1H-pyrazol-4-yl)amino]pyrazine-2-carboxamide]
7.00 to 8.00	5.00 to 6.00	5.00 to 6.00	C[C@@H]1[C@H](NC(=O)c2ccc3nccn3c2)CCCN1c1cnc(C(N)=O)c(Nc2cnn(C)c2)n1 [Example D-266, 5-[(2R,3R)-3-(imidazo[1,2-a]pyridine-6-amido)-2-methylpiperidin-1-yl]-3-[(1-methyl-1H-pyrazol-4-yl)amino]pyrazine-2-carboxamide]
6.00 to 7.00	5.00 to 6.00	6.00 to 7.00	C[C@@H]1[C@H](NC(=O)c2ccc3nn(C)cc3c2)CCCN1c1cnc(C(N)=O)c(Nc2cnn(C)c2)n1 [Example D-267, N-[(2R,3R)-1-{5-carbamoyl-6-[(1-methyl-1H-pyrazol-4-yl)amino]pyrazin-2-yl}-2-methylpiperidin-3-yl]-2-methyl-2H-indazole-5-carboxamide]
6.00 to 7.00	5.00 to 6.00	6.00 to 7.00	C[C@@H]1[C@H](NC(=O)c2ccc(C(N)=O)cc2)CCCN1c1cnc(C(N)=O)c(Nc2cnn(C)c2)n1 [Example D-268, 1-N-[(2R,3R)-1-{5-carbamoyl-6-[(1-methyl-1H-pyrazol-4-yl)amino]pyrazin-2-yl}-2-methylpiperidin-3-yl]benzene-1,4-dicarboxamide]
6.00 to 7.00	5.00 to 6.00	< 5.00	COCCN(C)Cc1cc(Nc2nc(N3CCC[C@@H](NC(=O)c4ccc(C5CC5)cc4)[C@H]3C)cnc2C(N)=O)sn1 [Example D-269, 5-[(2R,3R)-3-(4-cyclopropylbenzamido)-2-methylpiperidin-1-yl]-3-[(3-{[(2-methoxyethyl)(methyl)amino]methyl}-1,2-thiazol-5-yl)amino]pyrazine-2-carboxamide]
6.00 to 7.00	5.00 to 6.00	5.00 to 6.00	COCCn1cc(Nc2nc(N3CCC[C@@H](NC(=O)c4ccc(C5CC5)cc4)[C@H]3C)cnc2C(N)=O)cn1 [Example D-270, 5-[(2R,3R)-3-(4-cyclopropylbenzamido)-2-methylpiperidin-1-yl]-3-{[1-(2-methoxyethyl)-1H-pyrazol-4-yl]amino}pyrazine-2-carboxamide]
< 5.00	< 5.00	5.00 to 6.00	Cc1c(Nc2nc(N3CCC[C@@H](NC(=O)c4ccc(C5CC5)cc4)[C@H]3C)cnc2C(N)=O)cnn1C [Example D-271, 5-[(2R,3R)-3-(4-cyclopropylbenzamido)-2-methylpiperidin-1-yl]-3-[(1,5-dimethyl-1H-pyrazol-4-yl)amino]pyrazine-2-carboxamide]
